From patent US6914045B2, “Glycopeptide antibiotics” (Wyeth Holdings Corporation, priority 2001, dated 2005)
Converted amounts (≈) assume the structure as drawn.

How the values were obtained:
Test in all cases: in vitro antibacterial evaluation, MIC by broth dilution
Format in all cases: cell-based
Enterococcus sp. = settings: broth dilution, 18 hours at 35° C.; for MIC Enterococcus faecalis (ATCC 29212): strain ATCC 29212; for MIC Enterococcus faecalis (GC 2242): strain GC 2242; for MIC Enterococcus faecium (GC 2243): strain GC 2243; for MIC Enterococcus faecalis (GC 2691): strain GC 2691; for MIC Enterococcus faecalis (GC 3059): strain GC 3059; for MIC Enterococcus faecalis (GC 4552): strain GC 4552; for MIC Enterococcus faecalis (GC 4553): strain GC 4553; for MIC Enterococcus faecalis (GC 4554): strain GC 4554; for MIC Enterococcus faecium (GC 4556): strain GC 4556; for MIC Enterococcus faecium (GC 4557): strain GC 4557; for MIC Enterococcus avium (GC 4558): strain GC 4558; for MIC Enterococcus faecalis (GC 6189): strain GC 6189
In short: (§1)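 Test organisms, which included recent clinical isolates resistant to methicillin, penicillin and/or vancomycin, were inoculated at 5×10^5 CFU/mL into Muller-Hinton II […] containing antibiotic at 64-0.06 μg/mL. Minimum inhibitory concentrations were then read as the lowest level inhibiting growth.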

Escherichia coli = system: Escherichia coli
In short: as §1

Staphylococcus sp. = settings: broth dilution, 18 hours at 35° C.; for MIC Staphylococcus aureus (GC 1131): strain GC 1131
In short: as §1

Streptococcus sp. = settings: broth dilution, 18 hours at 35° C.; for MIC Streptococcus pneumoniae (ATCC 6301): strain ATCC 6301; for MIC Streptococcus pneumoniae (GC 1894): strain GC 1894; for MIC Streptococcus pyogenes (GC 4563): strain GC 4563; for MIC Streptococcus agalactiae (GC 4564): strain GC 4564; for MIC Streptococcus pneumoniae (GC 4565): strain GC 4565
In short: as §1

- MIC Enterococcus faecalis (ATCC 29212) (Enterococcus sp.; inoculum 5×10^5 CFU/mL): 8 µg/mL (≈ 5.46 µM)
- MIC Enterococcus faecalis (GC 2242) (Enterococcus sp.; inoculum 5×10^5 CFU/mL): 4 µg/mL (≈ 2.73 µM)
- MIC Enterococcus faecium (GC 2243) (Enterococcus sp.; inoculum 5×10^5 CFU/mL): 8 µg/mL (≈ 5.46 µM)
- MIC Enterococcus faecalis (GC 2691) (Enterococcus sp.; inoculum 5×10^5 CFU/mL): 8 µg/mL (≈ 5.46 µM)
- MIC Enterococcus faecalis (GC 3059) (Enterococcus sp.; inoculum 5×10^5 CFU/mL): 8 µg/mL (≈ 5.46 µM)
- MIC Enterococcus faecalis (GC 4552) (Enterococcus sp.; inoculum 5×10^5 CFU/mL): 8 µg/mL (≈ 5.46 µM)
- MIC Enterococcus faecalis (GC 4553) (Enterococcus sp.; inoculum 5×10^5 CFU/mL): 8 µg/mL (≈ 5.46 µM)
- MIC Enterococcus faecalis (GC 4554) (Enterococcus sp.; inoculum 5×10^5 CFU/mL): 16 µg/mL (≈ 10.9 µM)
- MIC Enterococcus faecium (GC 4556) (Enterococcus sp.; inoculum 5×10^5 CFU/mL): 8 µg/mL (≈ 5.46 µM)
- MIC Enterococcus faecium (GC 4557) (Enterococcus sp.; inoculum 5×10^5 CFU/mL): 4 µg/mL (≈ 2.73 µM)
- MIC Enterococcus avium (GC 4558) (Enterococcus sp.; inoculum 5×10^5 CFU/mL): 8 µg/mL (≈ 5.46 µM)
- MIC Enterococcus faecalis (GC 6189) (Enterococcus sp.; inoculum 5×10^5 CFU/mL): 4 µg/mL (≈ 2.73 µM)
- MIC Enterococcus faecalis (ATCC 29212) (Enterococcus sp.): 8 µg/mL (≈ 5.46 µM)
- MIC Enterococcus faecalis (GC 2242) (Enterococcus sp.): 4 µg/mL (≈ 2.73 µM)
- MIC Enterococcus faecium (GC 2243) (Enterococcus sp.): 8 µg/mL (≈ 5.46 µM)
- MIC Enterococcus faecalis (GC 2691) (Enterococcus sp.): 8 µg/mL (≈ 5.46 µM)
- MIC Enterococcus faecalis (GC 3059) (Enterococcus sp.): 8 µg/mL (≈ 5.46 µM)
- MIC Enterococcus faecalis (GC 4552) (Enterococcus sp.): 8 µg/mL (≈ 5.46 µM)
- MIC Enterococcus faecalis (GC 4553) (Enterococcus sp.): 8 µg/mL (≈ 5.46 µM)
- MIC Enterococcus faecalis (GC 4554) (Enterococcus sp.): 16 µg/mL (≈ 10.9 µM)
- MIC Enterococcus faecium (GC 4556) (Enterococcus sp.): 8 µg/mL (≈ 5.46 µM)
- MIC Enterococcus faecium (GC 4557) (Enterococcus sp.): 4 µg/mL (≈ 2.73 µM)
- MIC Enterococcus avium (GC 4558) (Enterococcus sp.): 8 µg/mL (≈ 5.46 µM)
- MIC Enterococcus faecalis (GC 6189) (Enterococcus sp.): 4 µg/mL (≈ 2.73 µM)
- MIC Escherichia coli (ATCC 25922) (Escherichia coli; strain ATCC 25922, 18 hours at 35° C.): >64 µg/mL
- MIC Escherichia coli (GC 4559) (Escherichia coli; strain GC 4559, 18 hours at 35° C.): 64 µg/mL (≈ 43.7 µM)
- MIC Escherichia coli (GC 4560) (Escherichia coli; strain GC 4560, 18 hours at 35° C.): 4 µg/mL (≈ 2.73 µM)
- MIC Staphylococcus aureus (GC 1131) (Staphylococcus sp.; inoculum 5×10^5 CFU/mL): 4 µg/mL (≈ 2.73 µM)
- MIC Staphylococcus aureus (ATCC 29213) (Staphylococcus sp.; strain ATCC 29213): 8 µg/mL (≈ 5.46 µM)
- MIC Staphylococcus aureus (GC 1131) (Staphylococcus sp.): 4 µg/mL (≈ 2.73 µM)
- MIC Staphylococcus aureus (GC 3051) (Staphylococcus sp.; strain GC 3051): 16 µg/mL (≈ 10.9 µM)
- MIC Staphylococcus aureus (GC 3053) (Staphylococcus sp.; strain GC 3053): 8 µg/mL (≈ 5.46 µM)
- MIC Staphylococcus aureus (GC 4541) (Staphylococcus sp.; strain GC 4541): 8 µg/mL (≈ 5.46 µM)
- MIC Staphylococcus aureus (GC 4542) (Staphylococcus sp.; strain GC 4542): 16 µg/mL (≈ 10.9 µM)
- MIC Staphylococcus aureus-SMITH (GC 4543) (Staphylococcus sp.; strain GC 4543): 4 µg/mL (≈ 2.73 µM)
- MIC Staphylococcus aureus (GC 4544) (Staphylococcus sp.; strain GC 4544): 8 µg/mL (≈ 5.46 µM)
- MIC Staphylococcus aureus (GC 4545) (Staphylococcus sp.; strain GC 4545): 4 µg/mL (≈ 2.73 µM)
- MIC Coagulase Negative Staphylococcus (GC 4547) (Staphylococcus sp.; strain GC 4547): 4 µg/mL (≈ 2.73 µM)
- MIC Coagulase Negative Staphylococcus (GC 4548) (Staphylococcus sp.; strain GC 4548): 1 µg/mL (≈ 0.682 µM)
- MIC Coagulase Negative Staphylococcus (GC 4549) (Staphylococcus sp.; strain GC 4549): 0.5 µg/mL (≈ 0.341 µM)
- MIC Coagulase Negative Staphylococcus (GC 4551) (Staphylococcus sp.; strain GC 4551): 4 µg/mL (≈ 2.73 µM)
- MIC Coagulase Negative Staphylococcus (GC 6257) (Staphylococcus sp.; strain GC 6257): 1 µg/mL (≈ 0.682 µM)
- MIC Staphylococcus aureus-SMITH (GC 4543) (Staphylococcus sp.; strain SMITH GC 4543): 4 µg/mL (≈ 2.73 µM)
- MIC Streptococcus pneumoniae (ATCC 6301) (Streptococcus sp.; inoculum 5×10^5 CFU/mL): <0.06 µg/mL
- MIC Streptococcus pneumoniae (GC 1894) (Streptococcus sp.; inoculum 5×10^5 CFU/mL): <0.06 µg/mL
- MIC Streptococcus pyogenes (GC 4563) (Streptococcus sp.; inoculum 5×10^5 CFU/mL): 0.12 µg/mL (≈ 0.0819 µM)
- MIC Streptococcus agalactiae (GC 4564) (Streptococcus sp.; inoculum 5×10^5 CFU/mL): 0.12 µg/mL (≈ 0.0819 µM)
- MIC Streptococcus pneumoniae (GC 4565) (Streptococcus sp.; inoculum 5×10^5 CFU/mL): <0.06 µg/mL
- MIC Streptococcus pneumoniae (ATCC 6301) (Streptococcus sp.): <0.06 µg/mL
- MIC Streptococcus pneumoniae (GC 1894) (Streptococcus sp.): <0.06 µg/mL
- MIC Streptococcus pyogenes (GC 4563) (Streptococcus sp.): 0.12 µg/mL (≈ 0.0819 µM)
- MIC Streptococcus agalactiae (GC 4564) (Streptococcus sp.): 0.12 µg/mL (≈ 0.0819 µM)
- MIC Streptococcus pneumoniae (GC 4565) (Streptococcus sp.): <0.06 µg/mL
SMILES: CC(c1ccccc1)C1NC(=O)CNC(=O)C(CO)NC(=O)C(C(O)C2CNC(=N)N2C2OC(CO)C(O)C(O)C2O)NC(=O)C(C(O)C2CNC(=N)N2)NC(=O)C(Cc2ccc(OC3OC(CO)C(OC4OC5COC(c6ccc(-c7ccsc7)cc6)OC5C(O)C4O)C(O)C3O)cc2)NC1=O (stereo not drawn) [Example 164]
- MIC Staphylococcus haemolyticus (GC 4546) (Staphylococcus sp.; strain GC 4546): 4 µg/mL (≈ 2.73 µM)
